Measurements reported in BindingDB's records for PubMed 11454918.
Structures can show the parent of a compound that is named as a salt.

Columns and labels:
[1] = biological target: 5-hydroxytryptamine receptor 1D (Homo sapiens, UniProt P28221)
[2] = biological target: T1, Alpha-2A adrenergic receptor (Homo sapiens, UniProt P08913)
T1 sequence (P08913 whole entry): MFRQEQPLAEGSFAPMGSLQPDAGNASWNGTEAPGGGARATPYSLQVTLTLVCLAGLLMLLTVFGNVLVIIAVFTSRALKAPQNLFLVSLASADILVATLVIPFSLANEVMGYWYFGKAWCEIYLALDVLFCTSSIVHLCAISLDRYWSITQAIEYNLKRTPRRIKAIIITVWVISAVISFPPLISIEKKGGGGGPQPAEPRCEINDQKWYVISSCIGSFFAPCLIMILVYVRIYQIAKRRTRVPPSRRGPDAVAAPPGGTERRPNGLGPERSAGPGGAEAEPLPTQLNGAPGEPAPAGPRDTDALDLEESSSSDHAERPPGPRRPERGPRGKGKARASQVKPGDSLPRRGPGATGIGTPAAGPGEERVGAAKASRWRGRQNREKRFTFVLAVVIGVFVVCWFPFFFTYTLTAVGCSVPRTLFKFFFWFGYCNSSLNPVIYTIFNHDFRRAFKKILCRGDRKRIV

[3] = biological target: T2, 5-hydroxytryptamine receptor 1A (Homo sapiens, UniProt P08908)
T2 sequence (P08908 whole entry): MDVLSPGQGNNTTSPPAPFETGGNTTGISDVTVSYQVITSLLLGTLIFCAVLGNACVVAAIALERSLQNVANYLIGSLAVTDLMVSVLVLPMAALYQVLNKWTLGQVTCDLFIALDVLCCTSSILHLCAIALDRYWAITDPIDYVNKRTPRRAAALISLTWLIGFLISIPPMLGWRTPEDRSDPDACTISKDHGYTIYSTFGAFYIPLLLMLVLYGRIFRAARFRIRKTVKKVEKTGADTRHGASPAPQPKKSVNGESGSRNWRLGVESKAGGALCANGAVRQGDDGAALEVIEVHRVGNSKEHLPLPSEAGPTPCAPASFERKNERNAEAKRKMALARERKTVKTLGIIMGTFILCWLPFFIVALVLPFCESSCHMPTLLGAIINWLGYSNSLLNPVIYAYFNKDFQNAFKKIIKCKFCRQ

[4] = biological target: 5-hydroxytryptamine receptor 1B (Homo sapiens, UniProt P28222)
Sequence of 5-hydroxytryptamine receptor 1B (P28222 whole entry): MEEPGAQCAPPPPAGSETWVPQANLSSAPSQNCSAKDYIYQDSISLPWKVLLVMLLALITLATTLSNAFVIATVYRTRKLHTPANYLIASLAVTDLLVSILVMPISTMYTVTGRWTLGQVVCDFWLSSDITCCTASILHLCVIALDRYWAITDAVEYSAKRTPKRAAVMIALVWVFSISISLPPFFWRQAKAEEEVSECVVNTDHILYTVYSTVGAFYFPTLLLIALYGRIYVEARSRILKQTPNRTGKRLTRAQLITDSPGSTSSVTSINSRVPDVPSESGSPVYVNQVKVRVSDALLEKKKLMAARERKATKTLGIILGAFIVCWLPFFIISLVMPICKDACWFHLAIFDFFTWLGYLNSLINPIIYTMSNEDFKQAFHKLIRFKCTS

[5] = biological target: T3, Alpha-1A adrenergic receptor (Rattus norvegicus, UniProt P43140)
T3 sequence (P43140 whole entry): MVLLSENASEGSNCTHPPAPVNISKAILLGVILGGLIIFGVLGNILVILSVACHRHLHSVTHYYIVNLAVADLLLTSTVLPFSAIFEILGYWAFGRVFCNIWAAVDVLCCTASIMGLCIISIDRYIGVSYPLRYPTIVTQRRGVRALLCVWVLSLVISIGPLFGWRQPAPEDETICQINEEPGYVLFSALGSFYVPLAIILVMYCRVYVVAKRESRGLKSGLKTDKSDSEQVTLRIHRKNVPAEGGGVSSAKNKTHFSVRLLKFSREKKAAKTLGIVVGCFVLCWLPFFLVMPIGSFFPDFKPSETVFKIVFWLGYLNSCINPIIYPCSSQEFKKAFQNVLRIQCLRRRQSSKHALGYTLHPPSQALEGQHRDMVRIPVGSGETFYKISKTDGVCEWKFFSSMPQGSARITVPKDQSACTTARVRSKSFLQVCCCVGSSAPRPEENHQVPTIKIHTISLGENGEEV

[6] = biological target: T4, Alpha-2C adrenergic receptor (Rattus norvegicus, UniProt P22086)
T4 sequence (P22086 whole entry): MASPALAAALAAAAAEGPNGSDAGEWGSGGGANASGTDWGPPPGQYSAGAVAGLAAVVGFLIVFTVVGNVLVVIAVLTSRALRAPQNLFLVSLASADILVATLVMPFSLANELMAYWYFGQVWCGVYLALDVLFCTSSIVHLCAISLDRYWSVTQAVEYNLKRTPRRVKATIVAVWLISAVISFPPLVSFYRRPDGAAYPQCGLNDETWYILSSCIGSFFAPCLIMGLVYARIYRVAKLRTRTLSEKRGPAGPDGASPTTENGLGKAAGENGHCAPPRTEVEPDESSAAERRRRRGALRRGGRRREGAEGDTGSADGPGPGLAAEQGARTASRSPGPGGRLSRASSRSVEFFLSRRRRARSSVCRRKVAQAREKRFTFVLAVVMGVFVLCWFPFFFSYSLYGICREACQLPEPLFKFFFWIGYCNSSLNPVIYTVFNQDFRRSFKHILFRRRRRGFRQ

[7] = biological target: T5, Alpha-1A adrenergic receptor (Homo sapiens, UniProt P35348)
T5 sequence (P35348 whole entry): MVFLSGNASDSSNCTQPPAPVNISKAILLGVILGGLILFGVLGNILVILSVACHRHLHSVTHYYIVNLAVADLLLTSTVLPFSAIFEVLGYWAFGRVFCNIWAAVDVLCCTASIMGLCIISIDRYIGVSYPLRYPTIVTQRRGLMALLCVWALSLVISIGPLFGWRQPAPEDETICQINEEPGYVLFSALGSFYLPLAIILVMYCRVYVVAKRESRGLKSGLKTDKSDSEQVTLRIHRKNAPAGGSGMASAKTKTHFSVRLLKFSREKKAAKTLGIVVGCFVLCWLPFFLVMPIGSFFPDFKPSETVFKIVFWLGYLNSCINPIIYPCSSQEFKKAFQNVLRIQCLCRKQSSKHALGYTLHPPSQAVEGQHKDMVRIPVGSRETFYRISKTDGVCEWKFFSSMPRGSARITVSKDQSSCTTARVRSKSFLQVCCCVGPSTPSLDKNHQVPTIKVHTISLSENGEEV

[8] = biological target: Sodium-dependent dopamine transporter (Homo sapiens, UniProt Q01959)
Sequence of Sodium-dependent dopamine transporter (Homo sapiens, UniProt Q01959) (Q01959 whole entry): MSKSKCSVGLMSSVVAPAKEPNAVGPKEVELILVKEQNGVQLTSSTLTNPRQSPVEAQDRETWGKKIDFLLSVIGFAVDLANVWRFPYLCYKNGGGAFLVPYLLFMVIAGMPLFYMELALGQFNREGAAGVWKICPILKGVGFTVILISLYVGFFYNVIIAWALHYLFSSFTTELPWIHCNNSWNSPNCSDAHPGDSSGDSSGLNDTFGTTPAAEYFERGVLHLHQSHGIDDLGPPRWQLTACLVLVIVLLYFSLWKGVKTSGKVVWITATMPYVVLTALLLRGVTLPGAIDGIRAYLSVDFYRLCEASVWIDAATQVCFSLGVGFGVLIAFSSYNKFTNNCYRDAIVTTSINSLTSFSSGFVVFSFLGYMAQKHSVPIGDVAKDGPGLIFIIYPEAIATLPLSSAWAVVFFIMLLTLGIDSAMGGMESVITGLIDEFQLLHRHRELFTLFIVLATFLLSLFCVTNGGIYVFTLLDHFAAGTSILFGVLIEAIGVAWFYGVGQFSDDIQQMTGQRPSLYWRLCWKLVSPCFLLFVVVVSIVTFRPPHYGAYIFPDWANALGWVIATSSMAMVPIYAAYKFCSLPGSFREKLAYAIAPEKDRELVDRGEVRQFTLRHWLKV

[9] = biological target: T6, 5-hydroxytryptamine receptor 2C (Homo sapiens, UniProt P28335)
T6 sequence (P28335 whole entry): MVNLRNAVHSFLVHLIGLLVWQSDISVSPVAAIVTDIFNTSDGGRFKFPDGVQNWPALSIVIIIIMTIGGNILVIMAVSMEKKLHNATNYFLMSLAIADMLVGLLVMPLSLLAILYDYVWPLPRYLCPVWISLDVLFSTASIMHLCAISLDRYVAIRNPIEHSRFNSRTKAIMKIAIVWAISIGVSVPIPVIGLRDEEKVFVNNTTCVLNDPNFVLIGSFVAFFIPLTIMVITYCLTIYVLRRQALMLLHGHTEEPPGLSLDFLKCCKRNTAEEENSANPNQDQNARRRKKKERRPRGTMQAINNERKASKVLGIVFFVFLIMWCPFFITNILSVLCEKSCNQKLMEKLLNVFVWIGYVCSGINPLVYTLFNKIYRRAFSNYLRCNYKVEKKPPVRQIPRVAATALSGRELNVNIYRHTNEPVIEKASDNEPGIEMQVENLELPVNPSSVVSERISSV

[10] = biological target: D(2) dopamine receptor (Homo sapiens, UniProt P14416)
Sequence of D(2) dopamine receptor (P14416 whole entry): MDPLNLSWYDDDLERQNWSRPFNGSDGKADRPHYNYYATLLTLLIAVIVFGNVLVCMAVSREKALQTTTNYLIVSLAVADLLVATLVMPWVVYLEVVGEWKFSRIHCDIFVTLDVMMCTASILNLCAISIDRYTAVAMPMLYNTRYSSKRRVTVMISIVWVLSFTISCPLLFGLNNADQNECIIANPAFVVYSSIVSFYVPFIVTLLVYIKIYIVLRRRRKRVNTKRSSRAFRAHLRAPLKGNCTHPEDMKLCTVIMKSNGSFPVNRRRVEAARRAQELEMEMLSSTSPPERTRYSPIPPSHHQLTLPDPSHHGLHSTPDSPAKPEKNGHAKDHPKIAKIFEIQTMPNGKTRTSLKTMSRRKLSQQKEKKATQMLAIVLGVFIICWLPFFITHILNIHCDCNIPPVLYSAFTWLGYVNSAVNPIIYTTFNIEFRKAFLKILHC

[11] = biological target: Sodium-dependent dopamine transporter (Rattus norvegicus, UniProt P23977)
Sequence of Sodium-dependent dopamine transporter (Rattus norvegicus, UniProt P23977) (P23977 whole entry): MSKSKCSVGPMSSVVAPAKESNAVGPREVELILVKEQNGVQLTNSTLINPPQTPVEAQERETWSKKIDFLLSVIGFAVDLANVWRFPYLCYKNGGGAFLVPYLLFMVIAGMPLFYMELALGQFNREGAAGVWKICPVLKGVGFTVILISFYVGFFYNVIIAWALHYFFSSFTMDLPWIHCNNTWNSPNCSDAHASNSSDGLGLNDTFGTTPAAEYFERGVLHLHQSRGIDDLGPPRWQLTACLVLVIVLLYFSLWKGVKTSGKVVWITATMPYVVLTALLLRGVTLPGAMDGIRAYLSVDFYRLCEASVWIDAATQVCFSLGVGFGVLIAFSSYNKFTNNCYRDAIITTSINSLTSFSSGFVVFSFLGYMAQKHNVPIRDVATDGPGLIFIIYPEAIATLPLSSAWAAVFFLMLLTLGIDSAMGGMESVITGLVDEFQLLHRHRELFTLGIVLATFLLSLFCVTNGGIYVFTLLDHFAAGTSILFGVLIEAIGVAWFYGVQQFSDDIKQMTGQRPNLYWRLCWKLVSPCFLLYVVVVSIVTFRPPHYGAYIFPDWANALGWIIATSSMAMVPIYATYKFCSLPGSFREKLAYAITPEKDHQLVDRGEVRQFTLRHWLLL

[12] = biological target: Sodium-dependent serotonin transporter (Rattus norvegicus, UniProt P31652)
Sequence of Sodium-dependent serotonin transporter (P31652 whole entry): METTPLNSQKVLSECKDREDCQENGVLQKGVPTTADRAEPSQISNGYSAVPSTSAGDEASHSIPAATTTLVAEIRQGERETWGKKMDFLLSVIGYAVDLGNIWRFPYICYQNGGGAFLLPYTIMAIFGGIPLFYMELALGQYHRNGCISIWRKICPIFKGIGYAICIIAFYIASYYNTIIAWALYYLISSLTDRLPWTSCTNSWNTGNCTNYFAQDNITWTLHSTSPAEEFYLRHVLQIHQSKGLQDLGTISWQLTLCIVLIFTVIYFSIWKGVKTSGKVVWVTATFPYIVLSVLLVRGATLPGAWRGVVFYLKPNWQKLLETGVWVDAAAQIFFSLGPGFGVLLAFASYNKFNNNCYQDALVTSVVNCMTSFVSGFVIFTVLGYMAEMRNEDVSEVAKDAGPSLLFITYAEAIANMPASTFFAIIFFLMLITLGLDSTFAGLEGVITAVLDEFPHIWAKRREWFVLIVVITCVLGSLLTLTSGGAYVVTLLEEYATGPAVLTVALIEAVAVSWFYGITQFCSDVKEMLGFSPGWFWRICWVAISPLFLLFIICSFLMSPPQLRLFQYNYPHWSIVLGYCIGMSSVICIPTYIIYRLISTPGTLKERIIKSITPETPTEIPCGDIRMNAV

[13] = biological target: Sodium-dependent noradrenaline transporter (Homo sapiens, UniProt P23975)
Sequence of Sodium-dependent noradrenaline transporter (P23975 whole entry): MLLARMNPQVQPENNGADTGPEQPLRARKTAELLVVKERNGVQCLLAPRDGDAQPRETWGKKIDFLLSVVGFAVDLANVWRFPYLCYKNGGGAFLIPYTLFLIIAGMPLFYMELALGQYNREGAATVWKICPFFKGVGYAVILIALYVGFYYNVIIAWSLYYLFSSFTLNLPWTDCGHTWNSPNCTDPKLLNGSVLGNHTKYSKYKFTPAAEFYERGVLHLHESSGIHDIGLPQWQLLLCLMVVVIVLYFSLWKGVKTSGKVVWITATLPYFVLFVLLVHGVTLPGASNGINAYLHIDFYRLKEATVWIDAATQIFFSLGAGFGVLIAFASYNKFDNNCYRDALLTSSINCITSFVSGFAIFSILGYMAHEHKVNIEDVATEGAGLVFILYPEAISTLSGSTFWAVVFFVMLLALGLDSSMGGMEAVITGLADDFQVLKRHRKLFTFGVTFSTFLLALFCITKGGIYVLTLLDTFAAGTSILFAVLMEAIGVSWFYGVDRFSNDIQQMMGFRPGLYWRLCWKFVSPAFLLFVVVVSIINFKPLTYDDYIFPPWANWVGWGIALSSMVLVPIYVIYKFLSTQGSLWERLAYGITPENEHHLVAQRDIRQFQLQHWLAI

[14] = biological target: Norepinephrine transporter (Rattus norvegicus, UniProt Q9JIA2)

Sequence of 5-hydroxytryptamine receptor 1D (P28221 whole entry): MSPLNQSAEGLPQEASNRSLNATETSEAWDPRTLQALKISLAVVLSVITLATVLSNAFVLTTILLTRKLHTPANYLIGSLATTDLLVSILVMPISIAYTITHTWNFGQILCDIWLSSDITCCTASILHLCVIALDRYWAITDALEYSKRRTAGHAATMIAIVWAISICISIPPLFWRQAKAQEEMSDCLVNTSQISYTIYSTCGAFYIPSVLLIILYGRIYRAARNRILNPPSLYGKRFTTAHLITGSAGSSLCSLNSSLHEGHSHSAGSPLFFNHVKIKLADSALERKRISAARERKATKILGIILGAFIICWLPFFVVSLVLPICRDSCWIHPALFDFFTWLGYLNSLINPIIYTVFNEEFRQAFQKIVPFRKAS

| SMILES | Ki [1] [µM] | Ki [2] [µM] | Ki [3] [µM] | Ki [4] [µM] | Ki [5] [µM] | Ki [6] [µM] | Ki [7] [µM] | Ki [8] [µM] | Ki [9] [µM] | Ki [10] [µM] | Ki [11] [µM] | Ki [12] [µM] | Ki [13] [µM] | Ki [14] [µM] |
| --- | --- | --- | --- | --- | --- | --- | --- | --- | --- | --- | --- | --- | --- | --- |
| CN(C)CCCC1(c2ccc(F)cc2)OCc2cc(C#N)ccc21 (configuration not stated) | > 10 | > 10 | > 10 | > 10 | > 10 | > 10 |  |  |  |  |  |  |  |  |
| CN(C)CCCN1c2ccccc2CCc2ccc(Cl)cc21 [CLOMIPRAMINE HYDROCHLORIDE] | > 10 | 0.525 | > 10 | > 10 |  | > 10 | 0.0032 | 3.02 | 0.0646 | 0.0776 | 1.23 |  |  |  |
| COc1ccc(C(CN(C)C)C2(O)CCCCC2)cc1 (configuration not stated) [NSC_62923] | > 10 | > 10 | > 10 |  |  | > 10 | > 10 |  | > 10 | > 10 |  |  |  |  |
| COc1ccc2c(c1)C(CN(C)C)(C1(O)CCCCC1)C2 (configuration not stated) [S33005] | > 10 | > 10 | > 10 | > 10 | > 10 | > 10 | > 10 | > 10 | > 10 | > 10 | > 10 | 0.00195 | 1.51 | 0.178 |
